Among the data in US4393225A, “AI-77 Compounds and pharmaceutically acceptable salts thereof” (Asahi Kasei Kogyo Kabushiki Kaisha, priority 1979, dated 1983) are inhibition in vivo values, retold here.

In one experiment the test system is ulcer. Briefly: Anti-ulcer test (restraint and water immersion ulcer in rats, i.p.). The format is in vivo, Male Wistar rats. As to conditions: Rattus norvegicus, ip, read-out: % Inhibition of Ulcer. In a few lines: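 Compound given intraperitoneally in saline to 24 h-fasted male Wistar rats about 150 g, followed after one hour by 6 h restraint with water immersion at 21 °C. Gastric lesions graded 0, 0.5, 1, 2 or 3 on microscopic inspection and converted to percent ulcer inhibition.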
Regarding `CCNC(CC(=O)NCCCl)C(O)C(OC(=O)CC)C(=O)NC(CC(C)C)C1Cc2cccc(O)c2C(=O)O1` (centres unmarked) [VII-11-4], the inhibition in vivo at 25 mg/kg is 56%.

On to `CC(C)CC(NC(=O)C(O)C1OC(=O)CC1NC(=O)C1CC1)C1Cc2cccc(O)c2C(=O)O1` (centres unmarked) [IIIa-1-18], for which the inhibition in vivo at 50 mg/kg came to 66%.

For `CC(C)CC(NC(=O)C(O)C1OC(=O)CC1NC(=O)C1CC2C=CC1C2)C1Cc2cccc(O)c2C(=O)O1` (centres unmarked) [IIIa-1-71], the inhibition in vivo at 50 mg/kg worked out at 66%.

As to `CC(C)CC(NC(=O)C(O)C(O)C(N)CC(N)=O)C1Cc2cccc(O)c2C(=O)O1` (centres unmarked) [VII-1-1], the inhibition in vivo at 25 mg/kg stood at 100%.

The experiment is the same for the next values; noted with them: Rattus norvegicus, ip; 25 mg/kg i.p.; read-out: % Inhibition of Ulcer.
With `CCCC(=O)Oc1cccc2c1C(=O)OC(C(CC(C)C)NC(=O)C(OCC)C(O)C(N)CC(N)=O)C2` (centres unmarked) [VII-9-4], the inhibition in vivo at 25 mg/kg was found to be 78%.

Take `CCCCCCCCCCCCCCCCCC(=O)Oc1cccc2c1C(=O)OC(C(CC(C)C)NC(=O)C(OC)C(O)C(N)CC(N)=O)C2` (centres unmarked) [VII-9-2]: the inhibition in vivo at 25 mg/kg is 56%.

In the case of `CNC(CC(N)=O)C(O)C(OC)C(=O)NC(CC(C)C)C1Cc2cccc(O)c2C(=O)O1` (centres unmarked) [VII-26-1], the inhibition in vivo at 25 mg/kg was 89%.

Take `CCNC(CC(N)=O)C(O)C(OC(C)=O)C(=O)NC(CC(C)C)C1Cc2cccc(O)c2C(=O)O1` (centres unmarked) [VII-11-1]: the inhibition in vivo at 25 mg/kg is 72%.

On to `CCCCNC(=O)CC(N)C(O)C(O)C(=O)NC(CC(C)C)C1Cc2cccc(O)c2C(=O)O1` (centres unmarked) [VII-1-4], for which the inhibition in vivo at 25 mg/kg was found to be 100%.

Regarding `CC(C)CC(NC(=O)C(O)C(O)C(N)CC(=O)NC(C)C)C1Cc2cccc(O)c2C(=O)O1` (centres unmarked) [VII-1-42], the inhibition in vivo at 25 mg/kg came out at 94%.

The same experiment, now with this note: Rattus norvegicus, ip; 50 mg/kg i.p.; read-out: % Inhibition of Ulcer.
With `CCOc1cccc2c1C(=O)OC(C(CC(C)C)NC(=O)C(O)C1OC(=O)CC1NC(=O)c1cnc3ccc(OC)cc3c1)C2` (centres unmarked) [IIIa-5-30], the inhibition in vivo at 50 mg/kg came out at 33%.

`CC(C)CC(NC(=O)C(O)C1OC(=O)CC1N)C1Cc2cccc(OCc3ccccc3)c2C(=O)O1` (centres unmarked) [IIIa-13-9]: the inhibition in vivo at 50 mg/kg came to 89%.

As to `CCOc1cccc2c1C(=O)OC(C(CC(C)C)NC(=O)C(O)C1OC(=O)CC1NC(=O)CC1CC1)C2` (centres unmarked) [IIIa-5-76], the inhibition in vivo at 50 mg/kg came out at 33%.

Regarding `CCOC(=O)CCC(=O)NC1CC(=O)OC1C(O)C(=O)NC(CC(C)C)C1Cc2cccc(O)c2C(=O)O1` (centres unmarked) [IIIa-1-36], the inhibition in vivo at 50 mg/kg stood at 66%.

Take `CCOc1cccc2c1C(=O)OC(C(CC(C)C)NC(=O)C(O)C1OC(=O)CC1N)C2` (centres unmarked) [IIIa-13-2]: the inhibition in vivo at 50 mg/kg worked out at 94%.

As for `CCOc1cccc2c1C(=O)OC(C(CC(C)C)NC(=O)C(OC(C)=O)C1OC(=O)CC1NC(=O)CC(C)OC)C2` (centres unmarked) [IIIa-6-7], the inhibition in vivo at 50 mg/kg was found to be 33%.

Regarding `CCC(=O)OC(C(=O)NC(CC(C)C)C1Cc2cccc(O)c2C(=O)O1)C1OC(=O)CC1NC(=O)C(Cl)(Cl)Cl` (centres unmarked) [IIIa-2-12], the inhibition in vivo at 50 mg/kg is 44%.

Regarding `CCOc1cccc2c1C(=O)OC(C(CC(C)C)NC(=O)C(O)C1OC(=O)CC1NC(=O)c1ccc(CCC(C)C)cc1)C2` (centres unmarked) [IIIa-5-38], the inhibition in vivo at 50 mg/kg is 33%.

As to `CCCCCCCCCCCCCCCCCCOc1cccc2c1C(=O)OC(C(CC(C)C)NC(=O)C(OCCCC)C1OC(=O)CC1N)C2` (centres unmarked) [IIIa-15-3], the inhibition in vivo at 50 mg/kg came out at 44%.

As for `CCCCCCCCCCCCCCCCCC(=O)NC1CC(=O)OC1C(O)C(=O)NC(CC(C)C)C1Cc2cccc(OCCCCCCC)c2C(=O)O1` (centres unmarked) [IIIa-5-6], the inhibition in vivo at 50 mg/kg was found to be 33%.

Regarding `CC(=O)NC1CC(=O)OC1C(OC(C)=O)C(=O)NC(CC(C)C)C1Cc2cccc(O)c2C(=O)O1` (centres unmarked) [IIIa-2-2], the inhibition in vivo at 50 mg/kg came to 44%.

Consider `CCOc1cccc2c1C(=O)OC(C(CC(C)C)NC(=N)C(OC(C)=O)C(O)C(N)CC(=O)O)C2` (centres unmarked) [Vb-6-1], for which the inhibition in vivo at 50 mg/kg stood at 66%.

Regarding `CCCOC(C(=O)NC(CC(C)C)C1Cc2cccc(OCC)c2C(=O)O1)C1OC(=O)CC1N` (centres unmarked) [IIIa-15-8], the inhibition in vivo at 50 mg/kg came to 56%.

For `CCOc1cccc2c1C(=O)OC(C(CC(C)C)NC(=O)C(O)C1OC(=O)CC1NC(=O)c1ccco1)C2` (centres unmarked) [IIIa-5-22], the inhibition in vivo at 50 mg/kg came to 44%.

Consider `CCOc1cccc2c1C(=O)OC(C(CC(C)C)NC(=O)C(O)C1OC(=O)CC1NC(=O)c1ccccc1)C2` (centres unmarked) [IIIa-5-16], for which the inhibition in vivo at 50 mg/kg amounted to 33%.

In the case of `CCCOC(C(=O)NC(CC(C)C)C1Cc2cccc(OCC)c2C(=O)O1)C1OC(=O)CC1NC(=O)C(Cl)(Cl)Cl` (centres unmarked) [IIIa-7-17], the inhibition in vivo at 50 mg/kg was 33%.

As to `CCCCCCCCCCCCCCCCCCNC1CC(=O)OC1C(OC(C)=O)C(=O)NC(CC(C)C)C1Cc2cccc(OCC)c2C(=O)O1` (centres unmarked) [IIIa-23-3], the inhibition in vivo at 50 mg/kg was found to be 44%.

Take `CC(=O)Oc1cccc2c1C(=O)OC(C(CC(C)C)NC(=O)C(O)C1OC(=O)CC1NC(=O)c1ccc(OCCC(C)C)cc1)C2` (centres unmarked) [IIIa-4-8]: the inhibition in vivo at 50 mg/kg was 33%.

In the case of `CC(C)CC(NC(=O)C(O)C1OC(=O)CC1NC(=O)CCCC1CCCCC1)C1Cc2cccc(O)c2C(=O)O1` (centres unmarked) [IIIa-1-19], the inhibition in vivo at 50 mg/kg is 66%.

`CCOc1cccc2c1C(=O)OC(C(CC(C)C)NC(=N)C(OC(=O)CC)C(O)C(N)CC(=O)O)C2` (centres unmarked) [Vb-6-3]: the inhibition in vivo at 50 mg/kg is 66%.

Turning to `CC(=O)Oc1cccc2c1C(=O)OC(C(CC(C)C)NC(=N)C(OC(=O)C(C)C)C(O)C(N)CC(=O)O)C2` (centres unmarked) [Vb-3-1], the inhibition in vivo at 50 mg/kg turned out to be 56%.

Regarding `CC(C)CC(NC(=O)C(O)C1OC(=O)CC1N)C1Cc2cccc(OC(=O)C(C)C)c2C(=O)O1` (centres unmarked) [IIIa-12-2], the inhibition in vivo at 50 mg/kg amounted to 78%.

For the compound `CNC1CC(=O)OC1C(OC)C(=O)NC(CC(C)C)C1Cc2cccc(OC(C)=O)c2C(=O)O1` (centres unmarked) [IIIa-35-1], the inhibition in vivo at 50 mg/kg came to 56%.

In the case of `CC(=O)n1cccc1C(=O)NC1CC(=O)OC1C(O)C(=O)NC(CC(C)C)C1Cc2cccc(O)c2C(=O)O1` (centres unmarked) [IIIa-1-28], the inhibition in vivo at 50 mg/kg turned out to be 66%.

`CCCCCCCCC=CCCCCCCCCOc1cccc2c1C(=O)OC(C(CC(C)C)NC(=O)C(O)C1OC(=O)CC1N)C2` (centres unmarked) [IIIa-13-7]: the inhibition in vivo at 50 mg/kg amounted to 72%.

For `CSCC(=O)NC1CC(=O)OC1C(O)C(=O)NC(CC(C)C)C1Cc2cccc(O)c2C(=O)O1` (centres unmarked) [IIIa-1-44], the inhibition in vivo at 50 mg/kg was found to be 66%.

Consider `CC(C)CC(NC(=O)C(O)C1OC(=O)CC1NC(=O)CC1CCCCO1)C1Cc2cccc(O)c2C(=O)O1` (centres unmarked) [IIIa-1-24], for which the inhibition in vivo at 50 mg/kg was 66%.

As for `CCOc1cccc2c1C(=O)OC(C(CC(C)C)NC(=O)C(O)C1OC(=O)CC1NC(=O)C1CCCO1)C2` (centres unmarked) [IIIa-5-23], the inhibition in vivo at 50 mg/kg is 44%.

As to `CCOc1cccc2c1C(=O)OC(C(CC(C)C)NC(=O)C(O)C1OC(=O)CC1NCC=C(C)C)C2` (centres unmarked) [IIIa-22-72], the inhibition in vivo at 50 mg/kg came out at 94%.

Turning to `CCCCCC(=O)OC(C)CC(=O)NC1CC(=O)OC1C(O)C(=O)NC(CC(C)C)C1Cc2cccc(O)c2C(=O)O1` (centres unmarked) [IIIa-1-49], the inhibition in vivo at 50 mg/kg was determined as 56%.

Turning to `CCOc1cccc2c1C(=O)OC(C(CC(C)C)NC(=O)C(O)C1OC(=O)CC1NC(=O)C(=O)CC)C2` (centres unmarked) [IIIa-5-32], the inhibition in vivo at 50 mg/kg stood at 44%.

With `CCOc1cccc2c1C(=O)OC(C(CC(C)C)NC(=O)C(O)C1OC(=O)CC1NC(=O)c1ccc(OC(C)=O)cc1)C2` (centres unmarked) [IIIa-5-35], the inhibition in vivo at 50 mg/kg came out at 44%.

For the compound `CCOc1cccc2c1C(=O)OC(C(CC(C)C)NC(=O)C(O)C1OC(=O)CC1NC(=O)C1CCC(OC)CC1)C2` (centres unmarked) [IIIa-5-71], the inhibition in vivo at 50 mg/kg turned out to be 33%.

Regarding `CCCCCCCC(=O)Oc1cccc2c1C(=O)OC(C(CC(C)C)NC(=O)C(O)C1C=CC(=O)O1)C2` (centres unmarked) [IVa-3-7], the inhibition in vivo at 50 mg/kg amounted to 33%.
